Format in all cases: functional
The subject of test [1] is Escherichia coli. Description: Antibacterial activity against Escherichia coli infected in po dosed mouse assessed as protection from infection compound administered 0.5 hrs, 4 and 24 hrs post inoculation. As to conditions: read-out: PD50.
The subject of test [2] is Salmonella enterica. Description: Antibacterial activity against Salmonella choleraesuis infected in po dosed mouse assessed as protection from infection compound administered 0.5 hrs, 4 and 24 hrs post inoculation. Conditions: read-out: PD50.
Test [3] has as its system Salmonella enterica. As to the kind of experiment: Antibacterial activity against Salmonella choleraesuis infected in mouse assessed as protection from infection at 25 mg/kg, po administered 0.5 hrs, 4 and 24 hrs post inoculation.
Test [4] concerns Escherichia coli. As to the kind of experiment: Antibacterial activity against Escherichia coli infected in sc dosed mouse assessed as protection from infection compound administered 0.5 hrs, 4 and 24 hrs post inoculation. As to conditions: read-out: PD50.
Test [5] relates to Salmonella enterica. Description: Antibacterial activity against Salmonella choleraesuis infected in mouse assessed as protection from infection at 25 mg/kg, sc administered 0.5 hrs, 4 and 24 hrs post inoculation. As to conditions: route subcutaneous.
The subject of test [6] is Salmonella enterica. Description: Antibacterial activity against Salmonella choleraesuis infected in sc dosed mouse assessed as protection from infection compound administered 0.5 hrs, 4 and 24 hrs post inoculation. Conditions: read-out: PD50.
Test [7] has as its system Pasteurella multocida. Description: Antibacterial activity against Pasteurella multocida infected in po dosed mouse assessed as protection from infection compound administered 0.5 hrs, 4 and 24 hrs post inoculation. As to conditions: read-out: PD50.
Test [8] deals with Pasteurella multocida. Description: Antibacterial activity against Pasteurella multocida infected in sc dosed mouse assessed as protection from infection compound administered 0.5 hrs, 4 and 24 hrs post inoculation. As to conditions: read-out: PD50.
Test [9] concerns Brachyspira hyodysenteriae. Description: Antibacterial activity against Treponema hyodysenteriae after 72 hrs by dilution method.
Test [10] deals with Salmonella enterica. As to the kind of experiment: Antibacterial activity against Salmonella choleraesuis.
The test system of test [11] is Escherichia coli. Description: Antibacterial activity against Escherichia coli.
In the next test the test system is Streptococcus pyogenes. As to the kind of experiment: Antibacterial activity against Streptococcus pyogenes.
Test [12] has as its system Pasteurella multocida. Description: Antibacterial activity against Pasteurella multocida.

In brackets after ≈: the same amount, converted by molar mass.

Regarding `CC1(O)OCc2c1[n+]([O-])c1ccccc1[n+]2[O-]` (configuration not stated), the ED50 came to 14 mg/kg in the test with Escherichia coli [1]; 6 mg/kg with Salmonella enterica [2]; 13 mg/kg in the test on Escherichia coli [4]; 4.4 mg/kg in the test with Salmonella enterica [6]; 11 mg/kg with Pasteurella multocida [7]; 8.1 mg/kg in the test with Pasteurella multocida [8]. Also, the Activity in the test on Salmonella enterica [3] and in the test on Salmonella enterica [5] was 100% each time.

Turning to `COC1(C)OCc2c1[n+]([O-])c1ccccc1[n+]2[O-]` (configuration not stated), the Activity with Salmonella enterica [3] and in the test on Salmonella enterica [5] was 70% throughout.

In the case of `CCOC1(C)OCc2c1[n+]([O-])c1ccccc1[n+]2[O-]` (configuration not stated), the Activity in the test on Salmonella enterica [3] is 70%; in the test on Salmonella enterica [5] it was 50%.

On to `CC1(OCc2ccccc2)OCc2c1[n+]([O-])c1ccccc1[n+]2[O-]` (configuration not stated), for which the Activity worked out at 40% in the test with Salmonella enterica [3] and 60% in the test with Salmonella enterica [5].

One may read the MIC as the least concentration at which growth counts as inhibited. Low readings indicate greater potency, high ones weaker potency. With `COC(=O)N/N=C/c1c[n+]([O-])c2ccccc2[n+]1[O-]` [CARBADOX], the ED50 amounted to 8.2 mg/kg in the test on Escherichia coli [1]; 20 mg/kg with Salmonella enterica [2]; 7 mg/kg in the test on Escherichia coli [4]; 44 mg/kg in the test with Salmonella enterica [6]; 16 mg/kg with Pasteurella multocida [7]; 18 mg/kg with Pasteurella multocida [8]. The MIC turned out to be 0.09 µg/mL (≈ 0.343 µM) in test [9]; 0.19 µg/mL (≈ 0.725 µM) in the test with Salmonella enterica [10]; 0.39 µg/mL (≈ 1.49 µM) in the test with Escherichia coli [11]; 0.19 µg/mL (≈ 0.725 µM) in the test with Streptococcus pyogenes; 0.78 µg/mL (≈ 2.97 µM) against Pasteurella multocida [12]. The Activity is recorded as 80% in the test on Salmonella enterica [3] and 40% in the test on Salmonella enterica [5].

For the origin of these results see ChEMBL document CHEMBL3244049, “Synthesis and antibacterial activity of 1-hydroxy-1-methyl-1,3-dihydrofuro[3,4-b]quinoxaline 4,9-dioxide and related compounds” (1979).
